Where two headings read alike, the source gives them in different places.
Tests used:
[1] = biological target: T1, human AR (Homo sapiens, UniProt P10275); assay: Co-transfection assay, AR agonist activity (CV-1 cells, MTV-LUC reporter); assay type: cell-based; settings: for EC50: agonist potency EC50
T1 sequence (P10275 1-920): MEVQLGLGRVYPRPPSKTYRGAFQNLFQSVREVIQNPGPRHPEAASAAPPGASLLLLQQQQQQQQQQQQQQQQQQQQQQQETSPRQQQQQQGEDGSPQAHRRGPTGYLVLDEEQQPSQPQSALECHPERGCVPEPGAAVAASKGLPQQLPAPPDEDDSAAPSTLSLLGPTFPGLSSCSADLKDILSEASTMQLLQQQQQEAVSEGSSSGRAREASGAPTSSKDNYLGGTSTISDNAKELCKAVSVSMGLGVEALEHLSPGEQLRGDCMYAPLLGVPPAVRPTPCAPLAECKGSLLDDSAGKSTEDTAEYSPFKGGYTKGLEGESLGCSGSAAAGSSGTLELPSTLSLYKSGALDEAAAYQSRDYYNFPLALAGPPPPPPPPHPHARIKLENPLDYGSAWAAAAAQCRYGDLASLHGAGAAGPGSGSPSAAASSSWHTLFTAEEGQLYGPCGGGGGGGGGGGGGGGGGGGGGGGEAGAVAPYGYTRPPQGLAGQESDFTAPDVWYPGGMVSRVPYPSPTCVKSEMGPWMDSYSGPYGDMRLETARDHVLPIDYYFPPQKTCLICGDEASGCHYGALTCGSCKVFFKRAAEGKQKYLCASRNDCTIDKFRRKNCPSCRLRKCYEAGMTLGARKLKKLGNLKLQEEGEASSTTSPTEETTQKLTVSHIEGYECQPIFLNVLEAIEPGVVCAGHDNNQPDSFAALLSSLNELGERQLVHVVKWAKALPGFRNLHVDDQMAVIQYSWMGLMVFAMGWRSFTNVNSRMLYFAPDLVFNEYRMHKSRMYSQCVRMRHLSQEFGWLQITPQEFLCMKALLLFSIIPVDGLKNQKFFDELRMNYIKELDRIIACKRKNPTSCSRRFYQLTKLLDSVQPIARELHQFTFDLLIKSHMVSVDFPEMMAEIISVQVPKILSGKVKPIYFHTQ

[2] = biological target: T1, human AR; assay: Co-transfection assay, AR antagonist activity (CV-1 cells, in presence of DHT); assay type: cell-based; settings: for IC50: read-out: AR Antagonist CV-1 Cells Potency
[3] = biological target: T1, human AR; assay: AR whole cell competitive binding assay (COS-1 cells, 3H-DHT); settings: 1 nM 3H-DHT, Cheng-Prusoff
[4] = CV-1 cells, percent maximal response relative to reference agonist DHT
[5] = CV-1 cells, percent maximal inhibition, DHT at its EC50

Compound	EC50 ([1]; CV-1 cells)	AR Agonist CV-1 Cells Efficacy (%) [1, 4]	AR Antagonist CV-1 Cells Efficacy (%) [2, 5]	IC50 [2]	Ki [3]	AR Antagonist CV-1 Cells Efficacy (%) [2]	IC50 ([2]; CV-1 cells, antagonist potency IC50, DHT at its EC50)	AR Agonist CV-1 Cells Efficacy (%) [1]
CCCC1CCC(CCC)N1c1ccc2[nH]c(=O)cc(C(F)(F)F)c2c1 (racemic) [Compound 365, (±)-6-(2,5-trans-Dipropyl-1-pyrrolidino)-4-trifluoromethyl-2(1H)-quinolinone]	55 nM	36%	43%	14 nM	124 nM	–	–	–
CCCNc1ccc2c(C(F)(F)F)cc(=O)[nH]c2c1 [Compound 513, 7-Propylamino-4-trifluoromethyl-2(1H)-quinolinone]	–	–	–	–	–	84%	–	–
CCCN(CC)c1ccc2[nH]c(=O)cc(C(F)(F)F)c2c1 [Compound 238, 6-(N-Ethyl-N-propyl)amino-4-trifluoromethyl-2(1H)-quinolinone]	5.3 nM	77%	na (na = not active (i.e. efficacy of <20 and potency of >10,000))	> 10000 nM	17 nM	–	–	–
O=c1cc(C(F)(F)F)c2cc(-c3ccc(Cl)cc3Cl)ccc2[nH]1 [Compound 753, 4-Trifluoromethyl-6-(2,4-dichlorophenyl)-2(1H)-quinolinone]	> 10000 nM	–	76%	51 nM	74 nM	–	–	–
O=c1cc(C(F)(F)F)c2cc(NCC(Cl)(Cl)Cl)ccc2[nH]1 [Compound 227, 6-(N-2,2,2-Trichloroethyl)amino-4-trifluoromethyl-2(1H)-quinolinone]	> 10000 nM	–	73%	14 nM	38 nM	–	–	–
CC1(C)OC(=O)Nc2ccc(N(CC(F)(F)F)CC(F)(F)F)cc21 [Compound 490, 1,4-Dihydro-4,4-dimethyl-6-(bis-N,N-2,2,2-trifluoroethyl)amino-1,3-benzo [d-]oxazin-2-one]	12 nM	113%	na (na = not active (i.e. efficacy of <20 and potency of >10,000))	> 10000 nM	12 nM	–	–	–
CC(C)c1ccc2[nH]c(=O)cc(C(F)(F)F)c2c1 [Compound 615, 6-Isopropyl-4-trifluoromethyl-2(1H)-quinolinone]	2800 nM	23%	82%	48 nM	56 nM	–	–	–
O=c1cc(C(F)(F)F)c2cc(N3CCCC[C@@H]3CCl)ccc2[nH]1 [Compound 433, (−)R-6-(2-Chloromethyl-1-piperidino)-4-trifluoromethyl-2(1H)-quinolinone]	6.4 nM	120%	na (na = not active (i.e. efficacy of <20 and potency of >10,000))	> 10000 nM	1.5 nM	–	–	–
O=c1cc(C(F)(F)F)c2cc(N3CCCC[C@H]3CCl)ccc2[nH]1 [Compound 432, (+)S-6-(2-Chloromethyl-1-piperidino)-4-trifluoromethyl-2(1H)-quinolinone]	8 nM	96%	na (na = not active (i.e. efficacy of <20 and potency of >10,000))	> 10000 nM	32 nM	–	–	–
O=C(Nc1ccc2c(C(F)(F)F)cc(=O)[nH]c2c1)C(F)(F)F [Compound 528, 7-(Trifluoroacetamido)-4-trifluoromethyl-2(1H)-quinolinone]	1300 nM	36%	59%	26 nM	–	–	–	–
4-Methyl-6-(2,4-dichlorolphenyl)-2(1H)-quinolinone [Compound 762]	> 10000 nM	–	81%	–	–	–	63 nM	–
O=C1C=C(c2ccc3[nH]c(=O)cc(C(F)(F)F)c3c2)CCC1 [Compound 655, 6-(3-Oxo-1-)cyclohexenyl-4-trifluoromethyl-2(1H)-quinolinone]	> 10000 nM	–	70%	70 nM	> 1000 nM	–	–	–
CCN(c1ccc2[nH]c(=O)cc(C(F)(F)F)c2c1)C(C)C [Compound 239, 6-(N-Ethyl-N-isopropyl)amino-4-trifluoromethyl-2(1H)-quinolinone]	–	–	–	–	–	na (key: na = not active (i.e. efficacy of <20 and potency of >10,000))	–	83%
Cn1c(=O)cc(C(F)(F)F)c2ccc(NCC(F)(F)F)cc21 [Compound 532, 1-Methyl-7-(2,2,2-trifluoromethyl)amino-4-trifluoromethyl-2(1H)-quinolinone]	> 10000 nM	–	85%	73 nM	159 nM	–	–	–
CCN(CC(C)C)c1ccc2[nH]c(=O)cc(C(F)(F)F)c2c1 [Compound 241, 6-(N-Ethyl-N-isobutyl)amino-4-trifluoromethyl-2(1H)-quinolinone]	2.9 nM	73%	na (na = not active (i.e. efficacy of <20 and potency of >10,000))	> 10000 nM	30 nM	–	–	–
CCCCN(CCCC)c1ccc2[nH]c(=O)cc(C(F)(F)F)c2c1 [Compound 220, 6-Dibutylamino-4-trifluoromethyl-2(1H)-quinolinone]	–	–	–	–	–	54%	–	68%
Cc1cc(=O)[nH]c2ccc(N(CC(F)(F)F)CC(F)(F)F)cc12 [Compound 377, 6-(bis-2,2,2-Trifluoroethyl)amino-4-methyl-2(1H)-quinolinone]	–	–	–	–	–	na (key: na = not active (i.e. efficacy of <20 and potency of >10,000))	–	89%
CC(C)Nc1ccc2c(C(F)(F)F)cc(=O)[nH]c2c1 [Compound 514, 7-Isopropylamino-4-trifluoromethyl-2(1H)-quinolinone]	–	–	–	–	–	87%	–	–
O=c1cc(C(F)(F)F)c2ccc(NCC(F)(F)F)cc2[nH]1 [Compound 523, 7-(N-2,2,2-Trifluoroethyl)amino-4-trifluoromethyl-2(1H)-quinolinone]	–	–	–	–	–	62%	–	29%
CCC(C)c1cc2c(C(F)(F)F)cc(=O)[nH]c2cc1N (stereo not shown) [Compound 581, 7-Amino-6-sec-butyl-4-trifluoromethyl-2(1H)-quinolinone]	–	39%	23%	–	–	–	–	–
O=c1cc(C(F)(F)F)c2ccc(NCC(F)(F)C(F)(F)F)cc2[nH]1 [Compound 520, 7-(2,2,3,3,3-Pentafluoropropyl)amino-4-trifluoromethyl-2(1H)-quinolinone]	–	–	–	–	–	76%	–	–
Cc1cc(=O)[nH]c2ccc(N(CC(C)C)CC(F)(F)F)cc12 [Compound 381, 6-(N-Isobutyl-N-2,2,2-trifluoroethyl)amino-4-methyl-2(1H)-quinolinone]	–	72%	na (na = not active (i.e. efficacy of <20 and potency of >10,000))	–	–	–	–	–
C=CC(C)(C)Nc1ccc2c(C(F)(F)F)cc(=O)[nH]c2c1 [Compound 559, 7-(1,1-Dimethylallyl)amino-4-trifluoromethyl-2(1H)-quinolinone]	–	–	–	–	–	92%	–	–
CCCNc1ccc2[nH]c(=O)cc(C(F)(F)F)c2c1 [Compound 204, 6-Propylamino-4-trifluoromethyl-2(1H)-quinolinone]	–	–	–	–	–	72%	–	34%

— patent US7696246B2 (Ligand Pharmaceuticals Incorporated, priority 1999, dated 2010)
